Molecular target: T1, SAMHD1_114-626 (Homo sapiens, UniProt Q9Y3Z3)
T1 construct: gene SAMHD1; purified recombinant residues 114-626 (HD domain and C-terminus, SAM domain removed); monomer without nucleotides, tetramer with GTP/dTTP
Experiment: 1H NMR dTTP hydrolysis rate versus GTP concentration
Type: biochemical
From the text: 1H NMR dTTP hydrolysis rate versus GTP concentration on SAMHD1_114-626 | we determine the EC50^GTP (half-maximal effective concentration) and kcat

T1 sequence (Q9Y3Z3 114-626): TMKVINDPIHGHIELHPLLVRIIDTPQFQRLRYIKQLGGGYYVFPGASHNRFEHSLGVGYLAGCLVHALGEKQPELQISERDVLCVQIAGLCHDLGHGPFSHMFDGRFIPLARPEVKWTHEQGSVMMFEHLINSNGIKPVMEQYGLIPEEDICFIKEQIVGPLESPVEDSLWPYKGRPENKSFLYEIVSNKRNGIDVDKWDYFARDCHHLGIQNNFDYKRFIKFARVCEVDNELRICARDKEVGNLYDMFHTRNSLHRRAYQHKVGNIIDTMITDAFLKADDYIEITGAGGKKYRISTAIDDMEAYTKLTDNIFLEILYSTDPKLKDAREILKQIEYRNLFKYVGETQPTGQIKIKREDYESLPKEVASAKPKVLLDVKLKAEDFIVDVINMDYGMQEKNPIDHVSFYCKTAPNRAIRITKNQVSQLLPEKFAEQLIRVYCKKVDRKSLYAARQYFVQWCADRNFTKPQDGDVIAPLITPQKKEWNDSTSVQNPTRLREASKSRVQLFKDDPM

SMILES: Nc1nc2c(ncn2[C@@H]2O[C@H](COP(=O)(O)OP(=O)(O)OP(=O)(O)O)[C@@H](O)[C@H]2O)c(=O)[nH]1 [GTP]
- EC50: 1.7 µM
